Experimental findings from patent US11124554B2, “Modified ligand-gated ion channels and methods of use” (Howard Hughes Medical Institute, priority 2016, dated 2021) are described below.

Experiment [1] has as its target T1, α7^Q79G-GlyR^A298G (Homo sapiens, UniProt P36544, A298G/Q79G).
T1 construct: expressed in transfected cells; host or cells: HEK cells
The experiment can be described thus: Agonist potency (EC50), HEK cells expressing chimeric channel. The format is cell-based.

Experiment [2] deals with T2, α7-GlyR (Homo sapiens, UniProt P36544).
T2 construct: expressed in transfected cells; host or cells: HEK cells
The experiment is described as above. It counts as cell-based.

Experiment [3] has as its target T3, α7-5HT3 (Homo sapiens, UniProt P36544, M226I/T225I).
T3 construct: expressed in transfected cells; host or cells: HEK cells
The description is as above. The format is cell-based, human α7 nAChR LBD, murine 5HT3 IPD.

Experiment [4] has as its system α7^L131G-5HT3 HC. The experiment can be described thus: Agonist potency at chimeric channel (Table 9). It counts as cell-based, human. The following applies: α7^L131G-5HT3 HC; reduction.
Experiment [5] deals with T4, α7^Y115F,G175K-GlyR (Homo sapiens, UniProt P36544, G175K/Y115F).
T4 construct: expressed in transfected cells
The experiment can be described thus: Agonist potency at chimeric channel. The format is cell-based. The following applies: Table 6; read-out: Potency, a7GlyR Y115F G175K.

Experiment [6] has as its target T5, α7^G175K-GlyR (Homo sapiens, UniProt P36544, G175K).
T5 construct: expressed in transfected cells
The experiment can be described thus: Agonist potency at chimeric channel. It counts as cell-based. As to conditions: for EC50: Table 6, read-out: Potency, a7GlyR G175K.

In experiment [7] the target is T6, α7^Q79G,Y115F,G175K-GlyR (Homo sapiens, UniProt P36544, G175K/Q79G/Y115F).
T6 construct: expressed in transfected cells
The experiment can be described thus: Agonist potency at chimeric channel. The format is cell-based. The following applies: Table 6; read-out: Potency, a7Gly Q79G G175K Y115F.

In experiment [8] the target is T7, α7^W77F,Q79G,G175K-GlyR (Homo sapiens, UniProt P36544, G175K/Q79G/W77F).
T7 construct: expressed in transfected cells
Nature of the experiment: Agonist potency at chimeric channel. It counts as cell-based. As to conditions: Table 6; read-out: Potency, a7GlyR W77F Q79G G175K.

Experiment [9] deals with T8, α7GlyR Q79G G175K Y115F R27D E41R (Homo sapiens, UniProt P36544, E41R/G175K/Q79G/R27D/Y115F).
T8 construct: expressed in transfected cells
Nature of the experiment: Agonist potency at chimeric channel. The format is cell-based. The following applies: Table 6; read-out: Potency, a7GlyR Q79G G175K Y115F R27D E41R.

For experiment [10], the target named is T9, α7^Q79G,G175K-GlyR (Homo sapiens, UniProt P36544, G175K/Q79G).
T9 construct: expressed in transfected cells
Nature of the experiment: Agonist potency at chimeric channel. The format is cell-based. The following applies: Table 6; read-out: Potency, a7GlyR Q79G G175K.

Experiment [11] concerns α7GlyR chimeric channels with G175K and A298G mutations. The format is cell-based, human.
Experiment [12] has as its target T10, α7^Q79G-5HT3 (Homo sapiens, UniProt P36544, M226I/Q79G/T225I).
T10 construct: expressed in transfected cells; host or cells: HEK cells
Nature of the experiment: Agonist potency (EC50), HEK cells expressing chimeric channel. As to conditions: HEK cells; Table 1; read-out: Mean EC50, α7^Q79G-5HT3. The format is cell-based, human α7 nAChR LBD, murine 5HT3 IPD.

Experiment [13] has as its target T11, α7^Q79S-5HT3 (Homo sapiens, UniProt P36544, M226I/Q79S/T225I).
T11 construct: expressed in transfected cells; host or cells: HEK cells
The experiment is described as above. The format is cell-based, human α7 nAChR LBD, murine 5HT3 IPD. The following applies: HEK cells; Table 1; read-out: Mean EC50, α7^Q79S-5HT3.

Experiment [14] deals with T12, α7^Q79A-5HT3 (Homo sapiens, UniProt P36544, M226I/Q79A/T225I).
T12 construct: expressed in transfected cells; host or cells: HEK cells
The experiment is described as above. It counts as cell-based, human α7 nAChR LBD, murine 5HT3 IPD. As to conditions: HEK cells; Table 1; read-out: Mean EC50, α7^Q79A-5HT3.

Experiment [15] has as its target T13, α7^Q79A-GlyR (Homo sapiens, UniProt P36544, Q79A).
T13 construct: expressed in transfected cells; host or cells: HEK cells
Described as above. As to conditions: HEK cells; Table 2; read-out: Mean EC50 and SEM in parentheses, α7^Q79A-GlyR. The format is cell-based.

Experiment [16] addresses T14, α7^Q79G-GlyR (Homo sapiens, UniProt P36544, Q79G).
T14 construct: expressed in transfected cells; host or cells: HEK cells
The description is as above. The following applies: HEK cells; Table 2; read-out: Mean EC50 and SEM in parentheses, α7^Q79G-GlyR. It counts as cell-based.

In experiment [17] the target is T15, α7-GlyR^A298G (Homo sapiens, UniProt P36544, A298G).
T15 construct: expressed in transfected cells; host or cells: HEK cells
Described as above. The format is cell-based. The following applies: HEK cells; Table 2; read-out: Mean EC50 and SEM in parentheses, α7-GlyR^A298G.

[18] abbreviates: HEK cells, Table 3, read-out: α7^Q79G-GlyR^A298G EC50.
The mark [19] stands for this setting: HEK cells, Table 3, read-out: α7-GlyR EC50.
Setting [20] is: HEK cells, Table 3, read-out: α7-5HT3 EC50.
The mark [21] stands for this setting: Table 6, read-out: Potency, a7-5HT3.

The structures appear in SMILES notation. Like-named read-outs stand apart in the source and are kept apart here.

T3 sequence (P36544 with tags, fused parts or gaps T225I/M226I): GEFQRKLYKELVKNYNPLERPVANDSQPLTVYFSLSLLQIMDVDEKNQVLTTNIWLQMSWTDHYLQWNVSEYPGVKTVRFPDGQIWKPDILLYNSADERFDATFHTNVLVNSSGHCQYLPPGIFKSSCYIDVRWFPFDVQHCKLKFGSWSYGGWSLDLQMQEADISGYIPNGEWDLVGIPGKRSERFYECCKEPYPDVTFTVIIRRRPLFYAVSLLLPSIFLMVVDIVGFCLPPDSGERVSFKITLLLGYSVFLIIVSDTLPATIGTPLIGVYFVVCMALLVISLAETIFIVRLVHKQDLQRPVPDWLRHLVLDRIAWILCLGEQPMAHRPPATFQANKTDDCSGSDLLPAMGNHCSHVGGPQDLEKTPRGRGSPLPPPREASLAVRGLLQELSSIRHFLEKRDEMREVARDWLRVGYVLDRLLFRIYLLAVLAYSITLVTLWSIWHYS
T6 sequence (P36544 with tags, fused parts or gaps Q79G/Y115F/G175K): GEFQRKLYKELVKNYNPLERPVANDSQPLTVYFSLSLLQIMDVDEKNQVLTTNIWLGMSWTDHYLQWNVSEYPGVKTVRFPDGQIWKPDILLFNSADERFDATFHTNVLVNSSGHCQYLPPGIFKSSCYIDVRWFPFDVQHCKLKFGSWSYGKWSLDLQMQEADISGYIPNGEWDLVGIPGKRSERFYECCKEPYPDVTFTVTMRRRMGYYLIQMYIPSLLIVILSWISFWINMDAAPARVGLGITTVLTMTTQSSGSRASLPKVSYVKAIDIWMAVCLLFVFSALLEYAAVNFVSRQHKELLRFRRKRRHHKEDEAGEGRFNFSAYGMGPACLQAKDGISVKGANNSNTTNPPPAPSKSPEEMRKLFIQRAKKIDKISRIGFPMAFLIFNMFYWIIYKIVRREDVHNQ
T2 sequence (P36544 with tags, fused parts or gaps): as the sequence (P36544 with tags, fused parts or gaps Q79G/Y115F/G175K) above, with G57Q, F93Y, K153G counted along it
T5 sequence (P36544 with tags, fused parts or gaps G175K): as the sequence (P36544 with tags, fused parts or gaps Q79G/Y115F/G175K) above, with G57Q, F93Y counted along it
T8 sequence (P36544 with tags, fused parts or gaps R27D/E41R/Q79G/Y115F/G175K): as the sequence (P36544 with tags, fused parts or gaps Q79G/Y115F/G175K) above, with R5D, E19R counted along it
T9 sequence (P36544 with tags, fused parts or gaps Q79G/G175K): as the sequence (P36544 with tags, fused parts or gaps Q79G/Y115F/G175K) above, with F93Y counted along it
T7 sequence (P36544 with tags, fused parts or gaps W77F/Q79G/G175K): as the sequence (P36544 with tags, fused parts or gaps Q79G/Y115F/G175K) above, with W55F, F93Y counted along it
T1 sequence (P36544 with tags, fused parts or gaps Q79G): as the sequence (P36544 with tags, fused parts or gaps Q79G/Y115F/G175K) above, with F93Y, K153G, A276G counted along it
T4 sequence (P36544 with tags, fused parts or gaps Y115F/G175K): as the sequence (P36544 with tags, fused parts or gaps Q79G/Y115F/G175K) above, with G57Q counted along it
T11 sequence (P36544 with tags, fused parts or gaps Q79S/T225I/M226I): as the sequence (P36544 with tags, fused parts or gaps T225I/M226I) above, with Q57S counted along it
T14 sequence (P36544 with tags, fused parts or gaps Q79G): as the sequence (P36544 with tags, fused parts or gaps Q79G/Y115F/G175K) above, with F93Y, K153G counted along it
T15 sequence (P36544 with tags, fused parts or gaps, stated change not applied): as the sequence (P36544 with tags, fused parts or gaps Q79G/Y115F/G175K) above, with G57Q, F93Y, K153G, A276G counted along it
T10 sequence (P36544 with tags, fused parts or gaps Q79G/T225I/M226I): as the sequence (P36544 with tags, fused parts or gaps T225I/M226I) above, with Q57G counted along it
T13 sequence (P36544 with tags, fused parts or gaps Q79A): as the sequence (P36544 with tags, fused parts or gaps Q79G/Y115F/G175K) above, with G57A, F93Y, K153G counted along it
T12 sequence (P36544 with tags, fused parts or gaps Q79A/T225I/M226I): as the sequence (P36544 with tags, fused parts or gaps T225I/M226I) above, with Q57A counted along it

With `COc1ccc(OC)c(C(=O)NC2C3CCN(CC3)C2Cc2cccnc2)c1` (mixture of isomers) [Compound 0434], the EC50 in experiment [1] (setting [18]) was 190 nM; in experiment [2] (setting [19]), more than 10000 nM; in [3] (setting [20]), more than 10000 nM.

Take `O=C(NC1C2CCN(CC2)C1Cc1cccnc1)c1ccc(C(F)(F)F)cc1` (mixture of isomers) [Compound 0436]: the EC50 in experiment [1] (setting [18]) is 6 nM; in [2] (setting [19]) it was 310 nM; in [3] (setting [20]), 840 nM.

For the molecule `CC(=O)OCC[N+](C)(C)C` [Acetylcholine], in experiment [4], the “reduced ACh responsiveness” value was determined as 5 fold.

Turning to `O=C(NC1CN2CCC1CC2)c1ccc(C(F)(F)F)cn1` (centres unmarked) [Compound 0295], the values for the EC50 in experiment [1] (setting [18]), in experiment [2] (setting [19]) and in experiment [3] (setting [20]) were 4600 nM, more than 100000 nM and more than 100000 nM, respectively.

On to `O=C(NC1CN2CCC1CC2)c1ccc(C(F)(F)F)nc1` (centres unmarked) [Compound 0296], for which the EC50 in experiment [1] (setting [18]) is 450 nM; in [3] (setting [20]), more than 100000 nM.

`O=C(Nc1ccccc1)NC1CN2CCC1CC2` (centres unmarked) [Compound 0353]: the figures for the EC50 in experiment [1] (setting [18]), in experiment [2] (setting [19]) and in experiment [3] (setting [20]) were 10 nM, 270 nM and 650 nM, respectively.

Regarding `S=C(Nc1ccc(Cl)cc1)NC1CN2CCC1CC2` (centres unmarked) [Compound 0354], the EC50 came to 30 nM in [1] (setting [18]); 1000 nM in [2]; 1400 nM in experiment [3] (read-out: α7-5HT3 EC50, HEK cells, Table 3). In experiment [3] (HEK cells, Table 3), the “partial agonist activity, α7-5HT3” value is reported as “partial”.

On to `CN1[C@@H]2CCC[C@H]1C[C@@H](NC(=S)c1ccc(Cl)cc1)C2` [Compound 0536], for which the EC50 in experiment [1] was 9100 nM; in [2] (setting [19]), more than 100000 nM; in experiment [3] (setting [20]), more than 33000 nM.

On to `CN1C2CCC1CC(NC(=S)c1c[nH]c3ccccc13)C2` (centres unmarked) [Compound 0542], for which the EC50 in [1] (setting [18]) was 72 nM; in [3] (setting [20]), 3800 nM.

As for `CN1C2CCC1CC(NC(=S)c1cn(C)c3ccccc13)C2` (centres unmarked) [Compound 622], the EC50 is 2500 nM in [5]; 870 nM in experiment [6]; 930 nM in experiment [7]; more than 100000 nM in experiment [3] (setting [21]); 1700 nM in [8].

With `O=C(NC1CN2CCC1CC2)c1c[nH]c2ccccc12` (centres unmarked) [Compound 0676], the EC50 was 2 nM in [1] (setting [18]) and 30 nM in experiment [3] (setting [20]).

On to `FC(F)(F)Oc1ccc(NC(=S)N[C@H]2CN3CCC2CC3)cc1` [Compound 684], for which the EC50 was 400 nM in experiment [9]; 230 nM in [6]; 790 nM in experiment [7]; more than 100000 nM in experiment [3] (setting [21]); 78 nM in [10].

`Fc1c(Cl)cccc1NC(=S)N[C@H]1CN2CCC1CC2` [Compound 701]: the EC50 in [3] (setting [21]) was more than 100000 nM.

As for `Fc1ccc(NC(=S)N[C@H]2CN3CCC2CC3)cc1Cl` [Compound 702], the EC50 in [3] (setting [21]) is more than 100000 nM.

`Fc1ccc(Cl)cc1NC(=S)N[C@H]1CN2CCC1CC2` [Compound 703]: the EC50 in experiment [3] (setting [21]) was more than 100000 nM.

For the molecule `Cc1ccc(Cl)cc1NC(=S)N[C@H]1CN2CCC1CC2` [Compound 705], the EC50 in experiment [5] was more than 10000 nM; in experiment [3] (setting [21]), more than 100000 nM.

As to `FC(F)(F)Oc1ccc(NC(=S)N[C@@H]2CN3CCC2CC3)cc1` [Compound 713], the EC50 in [9] was more than 10000 nM; in experiment [5], more than 10000 nM; in [6] it was 2100 nM; in [7], 23900 nM; in experiment [3] (setting [21]), more than 100000 nM; in [10] it was 540 nM.

For `COc1ccc2[nH]cc(C(=O)O[C@H]3C[C@H]4CC[C@@H](C3)N4C)c2c1` [Compound 736], the EC50 in experiment [9] was found to be 78 nM; in experiment [5] it was 570 nM; in experiment [7], 78 nM; in experiment [3] (setting [21]), 830 nM; in experiment [10] it was 44 nM; in experiment [8], 60 nM.

Regarding `CN1C2CCCC1CC(NC(=O)c1nn(C)c3ccccc13)C2` (centres unmarked) [Granisetron], the “activation of α7-GlyR” value in experiment [2] is “does not activate”. The “activation of α7-5HT3” value in [3] was “does not activate”.

On to `c1ccc2c(c1)Sc1ccccc1N2CC1CN2CCC1CC2` (centres unmarked) [Mequitazine], for which the figures for the EC50 in experiment [7], in experiment [3] (setting [21]) and in [8] were more than 10000 nM, more than 30000 nM and 150 nM, respectively.

Turning to `CN1CCCC1c1cccnc1` (centres unmarked) [Nicotine], the EC50 in experiment [11] (read-out: Agonist potency; α7GlyR Q79G A298G G175K Y115F) came to 3300 nM; in experiment [11] (read-out: Agonist potency; α7GlyR Q79G A298G P2161), 1600 nM; in [11] (read-out: Agonist potency; α7GlyR Q79G A298G Y115F K395 K396A), 16500 nM; in [11] (read-out: Agonist potency; α7GlyR Q79G G175K A298G), 110 nM; in experiment [11] (read-out: Agonist potency; α7GlyR Q79G W77F A298G) it was 3800 nM. In addition, the “potency enhancement over α7-GlyR” value in [6] came out at 10 fold.

In the case of `O=C(O[C@H]1C[C@H]2CC[C@@H](C1)N2)c1c[nH]c2ccccc12` [Nortropisetron], the EC50 is 8.4 nM in [11] (α7GlyR Q79G A298G G175K Y115F; read-out: Agonist potency) and 6.3 nM in experiment [11] (α7GlyR Q79G A298G Y115F K395 K396A; read-out: Agonist potency).

`CN(C)CCCN1c2ccccc2Sc2ccccc21` [Promazine]: the EC50 in experiment [7] and in experiment [3] (setting [21]) was more than 100000 nM in each case.

On to `Cn1cc(C(=O)C(=O)NC2CN3CCC2CC3)c2ccccc21` (centres unmarked) [RS56812], for which the EC50 in experiment [1] (HEK cells, Table 2, read-out: Mean EC50 and SEM in parentheses, α7^Q79G-GlyR^A298G) came to 610 nM; in [2] (HEK cells, Table 2, read-out: Mean EC50 and SEM in parentheses, α7 GlyR), 6500 nM; in experiment [12] it was 1400 nM; in experiment [13], 5700 nM; in experiment [3] (HEK cells, Table 1, read-out: Mean EC50, α7-5HT3) it was 10000 nM; in [14] it was 6800 nM. Also, the EC50 in [15] was determined as 3500 nM; in experiment [16], 2000 nM; in experiment [17], 2300 nM.
